According to patent US9095537B2, “Therapy of cancer based on targeting adaptive, innate and/or regulatory component of the immune response” (priority 2006, dated 2015):
Read-outs that look alike come from different tables or passages of the source.

Experiments:
[1] = test system: TC-1 cells; format: in vivo, C57BL/6 mice; settings: for survival percentage: TLR ligand given i.v. with 50 ug CyaA-E7 on day 25, pU and CpGs complexed with DOTAP, survival on day 100; for effect on tumor growth of TLR ligand alone: TLR ligand alone without CyaA-E7, day 25; for increase in tumor regression: TLR ligand given with CyaA-E7 on day 25, versus CyaA-E7 alone; for tumor growth after CTX alone: CTX 2.5 mg i.p. alone, day 24; for mice that totally eradicated their tumors: low dose CTX (2.5 mg i.p.) day 24, 24 h before 50 ug CyaA-E7; for enhancement of the effect of CyaA-E7 by DOX: DOX day 24, intra-tumorally or intravenously, CyaA-E7 day 25
Method: (§1) Specific pathogen-free 5-week-old female C57BL/6 mice were purchased from Charles River (L'Arbresle, France) and were kept in the Pasteur Institute animal facilities under pathogen-free conditions with water and food ad libitum. C57BL/6-RAG1^−/− mice were obtained from the Jackson Laboratory, USA. Experiments involving animals were conducted according to the institutional guidelines for animal care.
TC-1 cells expressing HPV16-E6 and HPV16-E7 proteins derived from primary mouse lung epithelial cells were obtained from the American Type Culture Collection (LGC Promochem, Molsheim, France) (14). EL4-E7 cells, a mouse lymphoma expressing HPV16-E7 (15). Cells were maintained in RPMI 1640 with GlutaMAX supplemented with 10% heat-inactivated fetal calf serum, 100 units/ml penicillin, 100 μg/ml streptomycin, 0.4 mg/ml geneticin and 5×10^−5 mol/12-mercaptoethanol (Life Technologies, Cergy-Pontoise, France).
(§2) Tumor cells lines (5×10^5 TC-1 cells or 4×10^6 EL4-E7 cells) were inoculated into the shaved left back of C57BL/6 mice in 200 μl volume of PBS. Tumor size, presented as the average of two perpendicular diameters (millimeters), was measured at regular intervals.
CpG ODNs (Type A, CpG 2216: 5′-[…]-3′ (SEQ ID NO: 6); Type B, CpG 1826: 5′-[…]-3′ (SEQ ID NO: 7)) were synthesized by Proligo (Paris, France). Boldface nucleotides correspond to phosphorothioate backbone. Polyuridine (pU) was purchased from Sigma (Steinheim, Germany), R848 from PharmaTech (Shanghai, China) and polyinosinic-polycytidylic acid (PIC) from Invivogen (San Diego, Calif., USA). Thirty μg of CpG ODNs or pU were diluted in 50 μl of Optimen medium (Gibco, Grand Island, N.Y., USA) and mixed with 60 μg of DOTAP (Roche, Mannheim, Germany) diluted in 100 μl of Optimen. The rest of the reagents were diluted in PBS before injection. Cyclophosphamide (CTX) (Sigma, Steinheim, Germany) and doxorubicin (DOX) (Calbiochem, La Jolla, Calif., USA) were diluted respectively in PBS and in sterile water before injection. The different antigenic formulations and adjuvants were injected simultaneously except chemotherapeutic agents that were given 24 h before vaccine. Intravenous administrations were performed by retroorbital injection in a volume of 200 μl, intratumoral administrations were done by injection in a volume of 50 μl and subcutaneous administration were performed in 200 μl.
Tumor growth data were analyzed by non-linear mixed effect models using Monolix software (http://www.math.u-psud.fr/˜lavielle/monolix/). Mean diameters of tumors over time were fitted using the model described in (17) and treatments were compared using the Likelihood Ratio test. Kaplan-Meier plots were used to analyzed survival, and a log rank test was used to examine statistical significance of differences in the survival curves using Prism software (GraphPad Software, Inc. San Diego, USA). Data from in vivo CTL and tetramer staining were compared by ANOVA followed by Dunnett posttest. p values less than 0.05 were considered to be statistically significant.

[2] = test system: T regulatory cells, myeloid suppressor cells, tumor-specific CD8+ T cells and NK cells; experiment: Flow cytometric analysis of immune cells in spleen, draining lymph nodes and tumor after tritherapy; format: in vivo, C57BL/6 mice
Method: FIG. 9. Changes in immune cells after tritherapy on day 25. […] Groups of mice were sacrificed before treatment (day 0), 24 hour after CTX alone (day 1) or on days 4, 7 or 11 after tritherapy administration. Spleen, tumor draining lymph nodes and tumor were excised, ground to prepare the cell suspensions, stained and analyzed by flow cytometry. Pooled data of two experiments are shown (n=4-6 mice). Bars represent mean values and the error bars correspond to standard error of the mean. *<0.05**<0.01. A) Percentage of CD4^+ cells that express CD25 and FoxP3. B) Percentage of CD4^+ cells that are CD25^− and FoxP3^+. C) Percentage of CD4^+ cells that express FoxP3. D) Percentage of CD8^+ cells that are tetramer^+ and CD44^+. E) Percentage of CD11c^+ cells. F) Percentage of CD11b^+ cells. G) Percentage of GR1^+ cells. H) Percentage of CD11b^+GR1^+ positive cells.
FIG. 11. Phenotype of myeloid cells induced by tritherapy and by tumor growth. […] Tritherapy treated mice received on day 24, 2.5 mg CTX i.p and 24 h later, 50 μg CyaA-E7 and 30 μg CpG-B/DOTAP. PBS treated mice received 200 μl of PBS on day 25. […] Spleens were excised, ground to prepare the cell suspensions, stained and analyzed by flow cytometry. […]
FACScalibur (Becton Dickinson, Franklin Lakes, N.J., USA) was used for flow cytometry and events were analyzed with CELLQuest software (Becton Dickinson, Franklin Lakes, N.J., USA).

[3] = test system: E749-57 peptide-pulsed splenocytes; experiment: In vivo killing assay (in vivo CTL); design: species or system C57BL/6 mice; settings: CTX 24 h before CyaA-E7, tumor-bearing mice day 25
Method: FIG. 8. Analysis of tumor specific immune response in control and tumor-bearing mice after different treatments. […] Twenty-five days later, control and tumor-bearing mice were injected with either 50 μg of control CyaA or of CyaA-E7, with PBS or with 30 μg of CpG-B or pU/DOTAP, 25 μg of PIC, 50 μg of R848, 2.5 mg of CTX (24 h before) or with CTX and CpG-B/DOTAP. Percentage of CD8^+ tetramer^+ cells in control (A) and in tumor-bearing mice (B). At day 7 after treatment, mice were sacrificed and the percentage of tetramer positive cells was analyzed by flow cytometry. In vivo CTL in control (C) and in tumor-bearing mice (D). […] Twenty-four hours later, spleens were removed and single-cell suspensions were analyzed by flow cytometry to determine the ratio of CFSE^high to CFSE^low cells. […] In vivo cytolytic activity was low but detected (E and F).
Naïve spleen cells were pulsed for 30 min with 9 μM E749-57 peptide at 37° C. […] Twenty-four hours later, spleens were removed and single-cells suspensions were analyzed by flow cytometry to determine the ratio of CFSE^high to CFSE^low cells. The percentage of specific lysis was calculated as follow: percent-specific lysis=100−(100×(% CFSE^highimmunized/% CFSE^low immunized)/(% CFSE^high control/% CFSE^low control)).

[4] = test system: TC-1 cells; settings: CTX 2.5 mg i.p. day 24; log-rank p=0.22 vs PBS
Method: as §1, §2

5′-GGGGGACGATCGTCGGGGGG-3′ [CpG-A]
survival percentage [1]: 58%

polyinosinic-polycytidylic acid [PIC]
effect on tumor growth of TLR ligand alone [1]: none of these TLR ligands administered alone had any effect on the tumor growth | survival percentage [1]: 41% | increase in tumor regression [1]: significant increase in tumor regression

O=P1(N(CCCl)CCCl)NCCCO1 (centres unmarked) [CTX, Cyclophosphamide]
percentage of CD25+FoxP3+/CD4+ in tumor-infiltrated lymphocytes ([2]; four days after administration of cyclophosphamide, from around 50%): below 30% | lymphodepletion ([2]; spleen and lymph node, tumor-bearing mice, CTX 2.5 mg i.p. day 24): transient lymphodepletion in spleen and lymph node that reverted by day 7 | immune response induced by CyaA-E7 [3]: did not enhance the immune response induced by CyaA-E7 | antitumor efficacy of combined CTX and CyaA-E7 at higher CTX dose ([1]; 300 mg/kg versus 100 mg/kg CTX i.p. day 24, CyaA-E7 day 25, log-rank p=0.95): not improved | tumor growth after CTX alone [1]: significantly delayed tumor growth but this effect was transient and was followed by tumor relapse | tumor growth after CTX alone ([1]; listed as cyclophosphamide): could transiently control tumor growth but was not able to induce the complete eradication | tumor growth after CTX plus CyaA-E7 ([1]; low dose CTX 24 h before CyaA-E7, day 24/25): delayed growth of all tumors | mice that totally eradicated their tumors [1]: 58% | mice that totally eradicated their tumors ([1]; listed as cyclophosphamide): around 60% | tumor growth delay by CTX alone in RAG1-/- mice [4]: not observed

polyuridine [pU]
survival percentage [1]: 41% | increase in tumor regression [1]: significant increase in tumor regression

5′-TCCATGACGTTCCTGACGTT-3′ [CpG-B]
effect on tumor growth of TLR ligand alone [1]: none of these TLR ligands administered alone had any effect on the tumor growth | survival percentage [1]: 50%

COc1cccc2c1C(=O)c1c(O)c3c(c(O)c1C2=O)C[C@@](O)(C(=O)CO)C[C@@H]3O[C@H]1C[C@H](N)[C@H](O)[C@H](C)O1 [DOX, Doxorubicin]
enhancement of the effect of CyaA-E7 by DOX [1]: did not enhance the effect of CyaA-E7 | enhancement of the effect of CyaA-E7 by DOX ([1]; listed as doxorubicin): had no effect
